The target in one test is LYCHOS-GATOR1 complex (Homo sapiens, UniProt Q7Z3F1). As to the kind of experiment: FLAG co-immunoprecipitation of GATOR1 with LYCHOS from cholesterol-refed cells. It counts as cell-based.
The target in another test is T1, LYCHOS (GPR155) (Homo sapiens, UniProt Q7Z3F1).
T1 sequence (Q7Z3F1 1-870): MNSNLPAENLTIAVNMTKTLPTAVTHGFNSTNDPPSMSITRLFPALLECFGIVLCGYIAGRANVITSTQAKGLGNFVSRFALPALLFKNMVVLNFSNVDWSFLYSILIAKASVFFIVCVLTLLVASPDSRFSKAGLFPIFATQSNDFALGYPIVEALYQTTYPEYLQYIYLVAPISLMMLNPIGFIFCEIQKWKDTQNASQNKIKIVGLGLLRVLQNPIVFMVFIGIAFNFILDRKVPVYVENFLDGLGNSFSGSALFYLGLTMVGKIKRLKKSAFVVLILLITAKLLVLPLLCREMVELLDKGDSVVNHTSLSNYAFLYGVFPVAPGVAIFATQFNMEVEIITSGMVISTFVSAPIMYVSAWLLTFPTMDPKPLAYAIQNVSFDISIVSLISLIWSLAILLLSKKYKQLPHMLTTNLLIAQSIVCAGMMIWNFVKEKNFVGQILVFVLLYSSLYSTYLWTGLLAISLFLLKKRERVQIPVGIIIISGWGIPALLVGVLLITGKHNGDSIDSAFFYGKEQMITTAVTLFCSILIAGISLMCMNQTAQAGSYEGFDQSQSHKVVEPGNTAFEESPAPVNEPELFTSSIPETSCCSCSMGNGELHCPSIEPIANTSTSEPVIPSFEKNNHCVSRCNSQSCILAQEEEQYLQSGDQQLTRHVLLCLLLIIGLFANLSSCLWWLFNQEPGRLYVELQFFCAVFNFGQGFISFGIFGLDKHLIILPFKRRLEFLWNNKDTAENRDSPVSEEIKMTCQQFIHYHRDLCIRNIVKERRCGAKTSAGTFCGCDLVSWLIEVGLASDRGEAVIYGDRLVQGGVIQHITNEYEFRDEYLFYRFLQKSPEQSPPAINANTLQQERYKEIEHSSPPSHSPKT
The test is described as follows: [3H]-cholesterol saturation binding, scintillation counting.

LYCHOS-GATOR1 complex, sequence (O75140 whole entry partner, one chain of several): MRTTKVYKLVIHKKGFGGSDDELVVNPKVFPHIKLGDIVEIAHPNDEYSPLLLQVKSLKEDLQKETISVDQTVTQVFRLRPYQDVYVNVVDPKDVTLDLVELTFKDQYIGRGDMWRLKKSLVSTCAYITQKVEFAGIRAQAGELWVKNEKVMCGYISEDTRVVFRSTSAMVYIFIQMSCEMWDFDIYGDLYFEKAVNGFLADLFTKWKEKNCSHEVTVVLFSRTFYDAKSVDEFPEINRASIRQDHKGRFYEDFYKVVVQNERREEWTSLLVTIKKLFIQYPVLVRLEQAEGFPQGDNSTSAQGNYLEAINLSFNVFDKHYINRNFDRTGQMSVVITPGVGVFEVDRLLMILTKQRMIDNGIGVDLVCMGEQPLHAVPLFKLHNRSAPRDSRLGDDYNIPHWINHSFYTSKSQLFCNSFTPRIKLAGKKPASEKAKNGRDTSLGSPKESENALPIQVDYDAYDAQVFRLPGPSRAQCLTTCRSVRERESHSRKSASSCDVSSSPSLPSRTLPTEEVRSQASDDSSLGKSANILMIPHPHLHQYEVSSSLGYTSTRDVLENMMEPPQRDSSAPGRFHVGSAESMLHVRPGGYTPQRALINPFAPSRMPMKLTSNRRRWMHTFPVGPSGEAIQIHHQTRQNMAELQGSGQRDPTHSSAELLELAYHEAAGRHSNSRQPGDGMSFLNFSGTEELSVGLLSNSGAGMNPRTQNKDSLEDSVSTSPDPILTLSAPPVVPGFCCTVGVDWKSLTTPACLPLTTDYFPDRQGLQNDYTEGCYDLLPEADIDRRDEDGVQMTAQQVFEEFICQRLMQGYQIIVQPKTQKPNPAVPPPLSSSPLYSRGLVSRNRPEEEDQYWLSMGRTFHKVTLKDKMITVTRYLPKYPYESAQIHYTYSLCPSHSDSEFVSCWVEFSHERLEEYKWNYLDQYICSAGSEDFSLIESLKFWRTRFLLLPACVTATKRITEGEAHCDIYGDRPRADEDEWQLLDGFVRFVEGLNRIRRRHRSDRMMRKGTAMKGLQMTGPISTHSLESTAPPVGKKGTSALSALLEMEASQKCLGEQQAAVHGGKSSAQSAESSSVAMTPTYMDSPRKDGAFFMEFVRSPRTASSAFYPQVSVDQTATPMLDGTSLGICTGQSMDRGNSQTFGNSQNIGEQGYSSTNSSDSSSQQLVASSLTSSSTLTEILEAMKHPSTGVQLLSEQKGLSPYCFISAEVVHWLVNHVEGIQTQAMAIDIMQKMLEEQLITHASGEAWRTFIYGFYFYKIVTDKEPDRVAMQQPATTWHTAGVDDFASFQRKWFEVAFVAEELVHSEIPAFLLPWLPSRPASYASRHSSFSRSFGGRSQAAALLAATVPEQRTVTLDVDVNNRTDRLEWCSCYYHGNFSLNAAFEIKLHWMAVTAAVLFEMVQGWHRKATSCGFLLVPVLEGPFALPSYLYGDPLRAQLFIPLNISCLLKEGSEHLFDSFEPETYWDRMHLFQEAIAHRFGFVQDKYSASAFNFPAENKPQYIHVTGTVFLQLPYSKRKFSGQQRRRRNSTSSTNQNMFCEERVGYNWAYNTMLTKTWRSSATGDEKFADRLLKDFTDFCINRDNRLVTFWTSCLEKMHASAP
LYCHOS-GATOR1 complex, sequence (Q8WTW4 whole entry partner, one chain of several): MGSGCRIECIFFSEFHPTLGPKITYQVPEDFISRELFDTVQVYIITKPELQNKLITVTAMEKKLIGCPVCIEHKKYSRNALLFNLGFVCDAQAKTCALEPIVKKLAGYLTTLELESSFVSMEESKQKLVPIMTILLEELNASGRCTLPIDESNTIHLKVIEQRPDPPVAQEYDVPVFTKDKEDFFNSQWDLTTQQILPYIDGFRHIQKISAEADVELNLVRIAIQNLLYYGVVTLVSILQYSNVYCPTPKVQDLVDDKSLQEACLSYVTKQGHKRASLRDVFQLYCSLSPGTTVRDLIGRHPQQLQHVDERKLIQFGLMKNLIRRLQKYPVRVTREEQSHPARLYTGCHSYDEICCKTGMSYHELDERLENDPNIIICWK
LYCHOS-GATOR1 complex, sequence (Q12980 whole entry partner, one chain of several): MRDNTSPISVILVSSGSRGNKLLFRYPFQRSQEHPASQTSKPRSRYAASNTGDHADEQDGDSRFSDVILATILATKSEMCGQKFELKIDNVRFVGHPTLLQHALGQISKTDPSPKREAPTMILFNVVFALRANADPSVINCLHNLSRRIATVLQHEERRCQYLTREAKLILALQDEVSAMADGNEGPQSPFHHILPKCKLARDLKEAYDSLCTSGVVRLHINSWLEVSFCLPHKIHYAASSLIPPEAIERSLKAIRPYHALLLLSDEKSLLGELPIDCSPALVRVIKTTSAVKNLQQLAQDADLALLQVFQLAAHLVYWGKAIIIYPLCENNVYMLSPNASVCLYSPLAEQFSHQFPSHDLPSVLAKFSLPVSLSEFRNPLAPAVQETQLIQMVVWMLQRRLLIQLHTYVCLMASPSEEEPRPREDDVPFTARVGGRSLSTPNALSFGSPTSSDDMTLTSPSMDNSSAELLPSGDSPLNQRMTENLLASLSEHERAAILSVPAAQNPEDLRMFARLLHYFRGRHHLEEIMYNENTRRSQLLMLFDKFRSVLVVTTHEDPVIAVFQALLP

For `CC(C)CCC[C@@H](C)[C@H]1CC[C@H]2[C@@H]3CC=C4C[C@@H](O)CC[C@]4(C)[C@H]3CC[C@]12C` [cholesterol], the EC50 – broadly, the concentration needed to bring the measured effect to its halfway point – at LYCHOS-GATOR1 complex was 31.5 µM. Also, the Kd (usually a measure of binding affinity in units of concentration) at LYCHOS (GPR155) lay in the range of 0.1 to 0.2 µM.
